# Laboratory results as given in patent publication US20230174584A1, “Antibiotic Compounds” (priority 2019, published 2023).
# Key:
# [1] = test system: S. aureus 880 (BR-VRSA), NR-49120; experiment: MIC assay; format: cell-based, Staphylococcus aureus
# Procedure, shortened: (§1)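 Read-out: lowest concentration inhibiting growth, reported as the median MIC (μg/mL) over ≥ triplicates. Set-up: CLSI method, TSB with 0.002% polysorbate 80, 10^6 CFU/mL inoculum added in equal volume to 2-fold dilutions, 37 °C for 24 h with 600 rpm agitation.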
# S. aureus ATCC29213 = experiment: MIC assay; format: cell-based, Staphylococcus aureus
# Procedure, shortened: as §1
# [2] = test system: S. aureus HIP12864, NR-46074; experiment: MIC assay; format: cell-based, Staphylococcus aureus
# Procedure, shortened: as §1
# [3] = test system: S. aureus HIP13419, NR-46413; experiment: microbe, parasite or virus in culture; format: cell-based, Staphylococcus aureus
# Procedure, shortened: as §1
# S. aureus USA300 = experiment: microbe, parasite or virus in culture; format: cell-based, Staphylococcus aureus
# Procedure, shortened: as §1
# E. faecium E0072 = experiment: MIC assay; format: cell-based, Enterococcus faecium
# Procedure, shortened: as §1
# E. faecium E1679 = experiment: MIC assay; format: cell-based, Enterococcus faecium
# Procedure, shortened: as §1
# E. faecium E1763 = experiment: MIC assay; format: cell-based, Enterococcus faecium
# Procedure, shortened: as §1
# E. faecium E2365 = experiment: MIC assay; format: cell-based, Enterococcus faecium
# Procedure, shortened: as §1
# E. faecium E2373 = experiment: MIC assay; format: cell-based, Enterococcus faecium
# Procedure, shortened: as §1
# E. faecium E7319 = experiment: MIC assay; format: cell-based, Enterococcus faecium
# Procedure, shortened: as §1
# E. faecium E155 = experiment: microbe, parasite or virus in culture; format: cell-based, Enterococcus faecium
# Procedure, shortened: as §1
# E. faecium E7314 = experiment: microbe, parasite or virus in culture; format: cell-based, Enterococcus faecium
# Procedure, shortened: as §1
# E. faecalis E7406 = experiment: microbe, parasite or virus in culture; format: cell-based, Enterococcus faecalis
# Procedure, shortened: as §1
# E. faecalis E7604 = experiment: microbe, parasite or virus in culture; format: cell-based, Enterococcus faecalis
# Procedure, shortened: as §1
# E. faecium E0338 = experiment: MIC assay; format: cell-based, Enterococcus faecium
# E. faecium E1441 = experiment: MIC assay; format: cell-based, Enterococcus faecium
# E. faecium E2359 = experiment: MIC assay; format: cell-based, Enterococcus faecium
# E. faecium E7312 = experiment: MIC assay; format: cell-based, Enterococcus faecium
# [4] = Staphylococcus aureus, ATCC 29213 / MSSA
# [5] = Staphylococcus aureus, MRSA / USA300
# [6] = S. aureus HIP12864, NR-46074 VISA
# [7] = S. aureus HIP13419, NR-46413 VRSA
# [8] = E. faecium E155, VanA (Table 10)
# [9] = E. faecium E7314, VanB (Table 10)
smiles,measurement,setting,value
"CCCCCCCCCCNCCN[C@@]1(C)C[C@H](O[C@H]2[C@H](Oc3c4cc5cc3Oc3ccc(cc3Cl)[C@@H](O)[C@@H](NC(=O)[C@@H](CC(C)C)NC)C(=O)N[C@@H](CC(N)=O)C(=O)N[C@H]5C(=O)N[C@H]3C(=O)N[C@H](C(=O)N[C@H](C(=O)O)c5cc(O)c(CNCP(=O)(O)O)c(O)c5-c5cc3ccc5O)[C@H](O)c3ccc(c(Cl)c3)O4)O[C@H](CO)[C@@H](O)[C@@H]2O)O[C@@H](C)[C@H]1O [Telavancin, reference compound]",MIC,"[1]; Staphylococcus aureus, VRSA",8 µg/mL
same,MIC,[1]; strain BR-VRSA,8 µg/mL
same,MIC,S. aureus ATCC29213; [4],0.125 µg/mL
same,MIC,"[2]; Staphylococcus aureus, VISA",0.25 µg/mL
same,MIC,"[3]; Staphylococcus aureus, VRSA",4 µg/mL
same,MIC,S. aureus USA300; [5],0.125 µg/mL
same,MIC,"E. faecium E0072; Enterococcus faecium, E0072",2 µg/mL
same,MIC,"E. faecium E1679; Enterococcus faecium, E1679",16 µg/mL
same,MIC,"E. faecium E1763; Enterococcus faecium, E1763",1 µg/mL
same,MIC,"E. faecium E2365; Enterococcus faecium, E2365",≤ 0.008 µg/mL
same,MIC,"E. faecium E2373; Enterococcus faecium, E2373",8 µg/mL
same,MIC,"E. faecium E7319; Enterococcus faecium, E7319",8 µg/mL
same,MIC,"E. faecium E155; Enterococcus faecium, E155",4 µg/mL
same,MIC,"E. faecium E155; Enterococcus faecium, VRE",4 µg/mL
same,MIC,"E. faecium E7314; Enterococcus faecium, E7314",≤ 0.008 µg/mL
same,MIC,"E. faecium E7314; Enterococcus faecium, VRE",≤ 0.00781 µg/mL
same,MIC,"E. faecalis E7406; Enterococcus faecalis, VRE",0.0625 µg/mL
same,MIC,"E. faecalis E7604; Enterococcus faecalis, VRE",0.063 µg/mL
same,MIC,"E. faecium E0338; Enterococcus faecium, E0338",8 µg/mL
same,MIC,"E. faecium E1441; Enterococcus faecium, E1441",8 µg/mL
same,MIC,"E. faecium E2359; Enterococcus faecium, E2359",≤ 0.008 µg/mL
same,MIC,"E. faecium E7312; Enterococcus faecium, E7312",2 µg/mL
CN[C@H](CC(C)C)C(=O)N[C@H]1C(=O)N[C@@H](CC(N)=O)C(=O)N[C@H]2C(=O)N[C@H]3C(=O)N[C@H](C(=O)N[C@H](C(=O)O)c4cc(O)cc(O)c4-c4cc3ccc4O)[C@H](O)c3ccc(c(Cl)c3)Oc3cc2cc(c3O[C@@H]2O[C@H](CO)[C@@H](O)[C@H](O)[C@H]2O[C@H]2C[C@](C)(NCc3ccc(N=C(N)NC/C=C(\C)CCC=C(C)C)cc3)[C@H](O)[C@H](C)O2)Oc2ccc(cc2Cl)[C@H]1O [Compound 14],MIC,"[1]; S. aureus 880, NR-49120 VRSA",1 µg/mL
same,MIC,S. aureus ATCC29213; S. aureus ATCC29213 MSSA,≤0.007812 µg/mL
same,MIC,[2]; [6],0.031 µg/mL
same,MIC,[3]; [7],0.063 µg/mL
same,MIC,"S. aureus USA300; MRSA USA300, TSB + 0.002% p80",0.031 µg/mL
same,MIC,S. aureus USA300; S. aureus USA300 MRSA,0.03125 µg/mL
same,MIC,"E. faecium E0072; E. faecium E0072, VanA",0.5 µg/mL
same,MIC,"E. faecium E1679; E. faecium E1679, VanA",16 µg/mL
same,MIC,"E. faecium E1763; E. faecium E1763, VanA",0.125 µg/mL
same,MIC,"E. faecium E2365; E. faecium E2365, VanB",≤0.008 µg/mL
same,MIC,"E. faecium E2373; E. faecium E2373, VanA",4 µg/mL
same,MIC,"E. faecium E7319; E. faecium E7319, VanA",0.5 µg/mL
same,MIC,E. faecium E155; [8],1 µg/mL
same,MIC,E. faecium E155; E. faecium E155 VRE (VanA),1 µg/mL
same,MIC,E. faecium E7314; [9],≤0.008 µg/mL
same,MIC,E. faecium E7314; E. faecium E7314 VRE (VanB),≤0.007812 µg/mL
same,MIC,E. faecalis E7406; E. faecalis E7406 VRE (VanB),≤0.007812 µg/mL
same,MIC,E. faecalis E7604; E. faecalis E7604 VRE (vanB),≤0.008 µg/mL
same,MIC,"E. faecium E0338; E. faecium E0338, VanA",4 µg/mL
same,MIC,"E. faecium E1441; E. faecium E1441, VanA",4 µg/mL
same,MIC,"E. faecium E2359; E. faecium E2359, VanB",≤0.008 µg/mL
same,MIC,"E. faecium E7312; E. faecium E7312, VanA",0.25 µg/mL
"CN[C@H](CC(C)C)C(=O)N[C@H]1C(=O)N[C@@H](CC(N)=O)C(=O)N[C@H]2C(=O)N[C@H]3C(=O)N[C@H](C(=O)N[C@H](C(=O)O)c4cc(O)cc(O)c4-c4cc3ccc4O)[C@H](O)c3ccc(c(Cl)c3)Oc3cc2cc(c3O[C@@H]2O[C@H](CO)[C@@H](O)[C@H](O)[C@H]2O[C@H]2C[C@](C)(N)[C@H](O)[C@H](C)O2)Oc2ccc(cc2Cl)[C@H]1O [Vancomycin, reference compound]",MIC,"[1]; Staphylococcus aureus, VRSA",> 128 µg/mL
same,MIC,[1]; strain BR-VRSA,>128 µg/mL
same,MIC,S. aureus ATCC29213; [4],1 µg/mL
same,MIC,"[2]; Staphylococcus aureus, VISA",8 µg/mL
same,MIC,"[3]; Staphylococcus aureus, VRSA",> 128 µg/mL
same,MIC,S. aureus USA300; [5],1 µg/mL
same,MIC,"E. faecium E0072; Enterococcus faecium, E0072",> 128 µg/mL
same,MIC,"E. faecium E1679; Enterococcus faecium, E1679",> 128 µg/mL
same,MIC,"E. faecium E1763; Enterococcus faecium, E1763",128 µg/mL
same,MIC,"E. faecium E2365; Enterococcus faecium, E2365",16 µg/mL
same,MIC,"E. faecium E2373; Enterococcus faecium, E2373",> 128 µg/mL
same,MIC,"E. faecium E7319; Enterococcus faecium, E7319",> 128 µg/mL
same,MIC,"E. faecium E155; Enterococcus faecium, E155",> 128 µg/mL
same,MIC,"E. faecium E155; Enterococcus faecium, VRE",> 128 µg/mL
same,MIC,"E. faecium E7314; Enterococcus faecium, E7314",128 µg/mL
same,MIC,"E. faecium E7314; Enterococcus faecium, VRE",128 µg/mL
same,MIC,"E. faecalis E7406; Enterococcus faecalis, VRE",16 µg/mL
same,MIC,"E. faecalis E7604; Enterococcus faecalis, VRE",16 µg/mL
same,MIC,"E. faecium E0338; Enterococcus faecium, E0338",> 128 µg/mL
same,MIC,"E. faecium E1441; Enterococcus faecium, E1441",> 128 µg/mL
same,MIC,"E. faecium E2359; Enterococcus faecium, E2359",128 µg/mL
same,MIC,"E. faecium E7312; Enterococcus faecium, E7312",> 128 µg/mL
CCCCCCN(CCCCCC)C(N)=Nc1ccc(CN[C@@]2(C)C[C@H](O[C@H]3[C@H](Oc4c5cc6cc4Oc4ccc(cc4Cl)[C@@H](O)[C@@H](NC(=O)[C@@H](CC(C)C)NC)C(=O)N[C@@H](CC(N)=O)C(=O)N[C@H]6C(=O)N[C@H]4C(=O)N[C@H](C(=O)N[C@H](C(=O)O)c6cc(O)cc(O)c6-c6cc4ccc6O)[C@H](O)c4ccc(c(Cl)c4)O5)O[C@H](CO)[C@@H](O)[C@@H]3O)O[C@@H](C)[C@H]2O)cc1 [Compound 12],MIC,"[1]; S. aureus 880, NR-49120 VRSA",1 µg/mL
same,MIC,[1]; strain BR-VRSA,1 µg/mL
same,MIC,S. aureus ATCC29213; S. aureus ATCC29213 MSSA,≤0.007812 µg/mL
same,MIC,[2]; [6],0.063 µg/mL
same,MIC,[3]; [7],0.25 µg/mL
same,MIC,"S. aureus USA300; MRSA USA300, TSB + 0.002% p80",0.063 µg/mL
same,MIC,S. aureus USA300; S. aureus USA300 MRSA,0.0625 µg/mL
same,MIC,"E. faecium E0072; E. faecium E0072, VanA",0.25 µg/mL
same,MIC,"E. faecium E1679; E. faecium E1679, VanA",8 µg/mL
same,MIC,"E. faecium E1763; E. faecium E1763, VanA",0.031 µg/mL
same,MIC,"E. faecium E2365; E. faecium E2365, VanB",≤0.008 µg/mL
same,MIC,"E. faecium E2373; E. faecium E2373, VanA",1 µg/mL
same,MIC,"E. faecium E7319; E. faecium E7319, VanA",0.25 µg/mL
same,MIC,E. faecium E155; [8],1 µg/mL
same,MIC,E. faecium E155; E. faecium E155 VRE (VanA),1 µg/mL
same,MIC,E. faecium E7314; [9],≤0.008 µg/mL
same,MIC,E. faecium E7314; E. faecium E7314 VRE (VanB),≤0.007812 µg/mL
same,MIC,E. faecalis E7406; E. faecalis E7406 VRE (VanB),≤0.007812 µg/mL
same,MIC,E. faecalis E7604; E. faecalis E7604 VRE (vanB),≤0.008 µg/mL
same,MIC,"E. faecium E0338; E. faecium E0338, VanA",2 µg/mL
same,MIC,"E. faecium E1441; E. faecium E1441, VanA",2 µg/mL
same,MIC,"E. faecium E2359; E. faecium E2359, VanB",≤0.008 µg/mL
same,MIC,"E. faecium E7312; E. faecium E7312, VanA",0.125 µg/mL
